Laboratory results as given in PubChem BioAssay (NCI).
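In this assay, cells in 96-well plates receive the compound at five concentrations for 48 hours. Endpoints are linearly interpolated between the surrounding concentrations. Abbreviation: GI50, concentration required for 50% inhibition of growth. The concentration for full growth arrest is given as TGI.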

Legend:
Experiment in all cases: NCI tumour cell line growth inhibition, 48 h
[1] = test system: 786-0 renal
[2] = test system: A498 renal
[3] = test system: A549 NSCLC
[4] = test system: ACHN renal
[5] = test system: BT-549 breast
[6] = test system: CAKI-1 renal
[7] = test system: CCRF-CEM leukemia
[8] = test system: COLO 205 colon
[9] = test system: DU-145 prostate
[10] = test system: EKVX NSCLC
[11] = test system: HCC-2998 colon
[12] = test system: HCT-116 colon
[13] = test system: HCT-15 colon
[14] = test system: HL-60(TB) leukemia
[15] = test system: HOP-62 NSCLC
[16] = test system: HOP-92 NSCLC
[17] = test system: HS 578T breast
[18] = test system: HT29 colon
[19] = test system: IGROV1 ovarian
[20] = test system: K-562 leukemia
[21] = test system: KM12 colon
[22] = test system: LOX IMVI melanoma
[23] = test system: M14 melanoma
[24] = test system: MALME-3M melanoma
[25] = test system: MCF7 breast
[26] = test system: MDA-MB-231 breast
[27] = test system: MDA-MB-435
[28] = test system: MDA-MB-468 breast
[29] = test system: MOLT-4 leukemia
[30] = test system: NCI-H226 lung
[31] = test system: NCI-H23 lung
[32] = test system: NCI-H460 lung
[33] = test system: NCI-H522 lung
[34] = test system: OVCAR-3 ovarian
[35] = test system: OVCAR-4 ovarian
[36] = test system: OVCAR-5 ovarian
[37] = test system: OVCAR-8 ovarian
[38] = test system: PC-3 prostate
[39] = test system: RPMI-8226 leukemia
[40] = test system: RXF 393 renal
[41] = test system: SF-268 CNS
[42] = test system: SF-295 CNS
[43] = test system: SF-539 CNS
[44] = test system: SK-MEL-2 melanoma
[45] = test system: SK-MEL-28 melanoma
[46] = test system: SK-MEL-5 melanoma
[47] = test system: SK-OV-3 ovarian
[48] = test system: SN12C renal
[49] = test system: SNB-19 CNS
[50] = test system: SNB-75 CNS
[51] = test system: SR leukemia
[52] = test system: SW-620 colon
[53] = test system: T-47D breast
[54] = test system: TK-10 renal
[55] = test system: U251 CNS
[56] = test system: UACC-257 melanoma
[57] = test system: UACC-62 melanoma
[58] = test system: UO-31 renal

COc1ccccc1NC(=O)c1ccc(NC(=O)CCl)s1
GI50 [1]: 12.3 µM
TGI [1]: 26.1 µM
GI50 [2]: 87.4 µM
TGI [2]: > 100 µM
GI50 [3]: 14.7 µM
TGI [3]: 40 µM
GI50 [4]: 10.5 µM
TGI [4]: 24.5 µM
GI50 [5]: 12.2 µM
TGI [5]: 26.8 µM
GI50 [6]: 12.8 µM
TGI [6]: 29 µM
GI50 [7]: 3.62 µM
TGI [7]: 88.1 µM
GI50 [8]: 15.1 µM
TGI [8]: 35.5 µM
GI50 [9]: 24.7 µM
TGI [9]: 85 µM
GI50 [10]: 18 µM
TGI [10]: 67.7 µM
GI50 [11]: 28.6 µM
TGI [11]: > 100 µM
GI50 [12]: 5.52 µM
TGI [12]: 30.5 µM
GI50 [13]: 4.29 µM
TGI [13]: 29 µM
GI50 [14]: 4.76 µM
TGI [14]: 35.6 µM
GI50 [15]: 36.4 µM
TGI [15]: > 100 µM
GI50 [16]: 16.5 µM
TGI [16]: 34.7 µM
GI50 [17]: 15.1 µM
TGI [17]: 54.4 µM
GI50 [18]: 8.76 µM
TGI [18]: 22.9 µM
GI50 [19]: 15.6 µM
TGI [19]: 34.9 µM
GI50 [20]: 2.65 µM
TGI [20]: > 100 µM
GI50 [21]: 14.7 µM
TGI [21]: 38.8 µM
GI50 [22]: 4.81 µM
TGI [22]: 18.5 µM
GI50 [23]: 13.1 µM
TGI [23]: 28.7 µM
GI50 [24]: 15.1 µM
TGI [24]: 30.5 µM
GI50 [25]: 5.02 µM
TGI [25]: 44 µM
GI50 [26]: 15.2 µM
TGI [26]: 33.7 µM
GI50 [27]: 15.7 µM
TGI [27]: 32.5 µM
GI50 [28]: 12.4 µM
TGI [28]: 27.7 µM
GI50 [29]: 4.23 µM
TGI [29]: 40.6 µM
GI50 [30]: 14.6 µM
TGI [30]: 32.4 µM
GI50 [31]: 13.6 µM
TGI [31]: 31.2 µM
GI50 [32]: 11 µM
TGI [32]: 35.4 µM
GI50 [33]: 10.6 µM
TGI [33]: 24 µM
GI50 [34]: 13.6 µM
TGI [34]: 29 µM
GI50 [35]: 21 µM
TGI [35]: 68.7 µM
GI50 [36]: 23.6 µM
TGI [36]: 49.2 µM
GI50 [37]: 12.7 µM
TGI [37]: 33.8 µM
GI50 [38]: 11.1 µM
TGI [38]: 28.4 µM
GI50 [39]: 13.6 µM
TGI [39]: 38.6 µM
GI50 [40]: 11.6 µM
TGI [40]: 25.1 µM
GI50 [41]: 18.8 µM
TGI [41]: 64.2 µM
GI50 [42]: 25.9 µM
TGI [42]: > 100 µM
GI50 [43]: 16.2 µM
TGI [43]: 30.8 µM
GI50 [44]: 13.9 µM
TGI [44]: 29.2 µM
GI50 [45]: 21.9 µM
TGI [45]: 54.1 µM
GI50 [46]: 15.3 µM
TGI [46]: 29.4 µM
GI50 [47]: 29.5 µM
TGI [47]: 74.9 µM
GI50 [48]: 13.4 µM
TGI [48]: 36 µM
GI50 [49]: 32.4 µM
TGI [49]: > 100 µM
GI50 [50]: 11.5 µM
TGI [50]: 83.2 µM
GI50 [51]: 3.11 µM
TGI [51]: > 100 µM
GI50 [52]: 4.27 µM
TGI [52]: 21.7 µM
GI50 [53]: 42.3 µM
TGI [53]: > 100 µM
GI50 [54]: 20.4 µM
TGI [54]: 73.6 µM
GI50 [55]: 13.9 µM
TGI [55]: 28.1 µM
GI50 [56]: 24.3 µM
TGI [56]: > 100 µM
GI50 [57]: 16.1 µM
TGI [57]: 31 µM
GI50 [58]: 13.7 µM
TGI [58]: 27.3 µM
